Source: patent US20080161249A1, “Use of Novel Antibacterial Compounds” (SMITHKLINE BEECHAM CORPORATION, priority 2004, published 2008)
≈ marks a conversion by molar mass, not a printed value. Like-named read-outs stand apart in the source and are kept apart here.

How the values were obtained:
S. pneumoniae 1629 = experiment: MIC against S. pneumoniae 1629, alone and with subinhibitory concentrations of a second agent; format: cell-based, Streptococcus pneumoniae; settings: for MIC, antibiotic alone: single agent; for MIC: Streptococcus pneumoniae, 1629, S. pneumoniae 1629
S. aureus WCUH29 = experiment: MIC against S. aureus WCUH29, alone and with subinhibitory concentrations of a second agent; format: cell-based, Staphylococcus aureus; settings: for MIC, antibiotic alone: single agent; for decrease of MIC by subinhibitory concentrations of Compound (1a): S. aureus, Example 3; for MIC: Staphylococcus aureus, WCUH29, S. aureus WCUH29, no second agent, read-out: MIC, single agent
S. aureus strain Smith = experiment: MIC against S. aureus strain Smith, alone and in combination; format: cell-based, Staphylococcus aureus
S. aureus strain RN4220 = experiment: MIC against S. aureus strain RN4220, alone and in combination; format: cell-based, Staphylococcus aureus
S. aureus strain Oxford = experiment: MIC against S. aureus strain Oxford, alone and in combination; format: cell-based, Staphylococcus aureus
From the text: (§1) Subinhibitory Concentrations of PDF Inhibitors Decrease the MICs of Macrolides against Representative S. aureus Strains
(§2) Subinhibitory Concentrations of Macrolides Decrease the MICs of PDF Inhibitors against Representative S. aureus Strains

S. aureus strain PK1 = experiment: MIC against S. aureus strain PK1, alone and in combination; format: cell-based, Staphylococcus aureus
From the text: as §1, §2

H. influenzae Q1 = experiment: MIC against H. influenzae Q1, alone and with subinhibitory concentrations of a second agent; format: cell-based, Haemophilus influenzae; settings: for MIC, antibiotic alone: single agent (Example 7);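 for all read-outs here: combinations paired PDF inhibitors with macrolides, one class added below its own MIC to test whether the MIC of the other class dropped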
[1] = S. pneumoniae 1629, +0.06 ug/mL Compound (1b)
[2] = no second agent, read-out: MIC, single agent
[3] = S. aureus WCUH29, +1 ug/mL Compound (1a)
[4] = Staphylococcus aureus, macrolide alone, read-out: MIC, −Compound (1a)
[5] = H. influenzae Q1, +0.5 ug/mL Compound (1a)
[6] = S. pneumoniae 1629, +[…] Compound (1b)
[7] = S. aureus WCUH29, +0.5 ug/mL Compound (1a)
[8] = H. influenzae Q1, +1 ug/mL Compound (1a)

SMILES: CC[C@H]1OC(=O)[C@H](C)[C@@H](O[C@H]2C[C@@](C)(OC)[C@@H](O)[C@H](C)O2)[C@H](C)[C@@H](O[C@@H]2O[C@H](C)C[C@H](N(C)C)[C@H]2O)[C@](C)(O)C[C@@H](C)CN(C)[C@H](C)[C@@H](O)[C@]1(C)O [Azithromycin, azithromycin]
- decrease of MIC by subinhibitory concentrations of Compound (1b) (S. pneumoniae 1629; S. pneumoniae): 2-8 fold
- MIC, antibiotic with 0.06 ug/mL (¼ MIC) of Compound (1b) (S. pneumoniae 1629; [1]): 0.016 µg/mL
- MIC, antibiotic alone (S. pneumoniae 1629; S. pneumoniae 1629): 0.03 µg/mL (≈ 0.0401 µM)
- MIC (S. pneumoniae 1629; [2]): 0.03 µg/mL (≈ 0.0401 µM)
- MIC, antibiotic with 1 ug/mL (½ MIC) of Compound (1a) (S. aureus WCUH29; [3]): 0.03 µg/mL
- MIC, antibiotic alone (S. aureus WCUH29; S. aureus WCUH29): 1 µg/mL (≈ 1.34 µM)
- decrease of MIC by subinhibitory concentrations of Compound (1a) (S. aureus WCUH29): 8-32 fold
- MIC (S. aureus WCUH29): 1 µg/mL (≈ 1.34 µM)
- MIC (S. aureus strain Smith; [4]): 1 µg/mL
- MIC, +Compound (1a) [¼ × MIC] (S. aureus strain Smith; with ¼ × MIC of Compound (1a)): 0.25 µg/mL
- MIC (S. aureus strain RN4220; [4]): 1 µg/mL
- MIC, +Compound (1a) [¼ × MIC] (S. aureus strain RN4220; with ¼ × MIC of Compound (1a)): 0.25 µg/mL
- MIC (S. aureus strain Oxford; [4]): 0.5 µg/mL
- MIC, +Compound (1a) [¼ × MIC] (S. aureus strain Oxford; with ¼ × MIC of Compound (1a)): 0.25 µg/mL
- MIC, +Compound (1a) [½ × MIC] (S. aureus strain Oxford; with ½ × MIC of Compound (1a)): 0.06 µg/mL
- MIC (S. aureus strain PK1; [4]): > 64 µg/mL
- MIC, +Compound (1a) [¼ × MIC] (S. aureus strain PK1; with ¼ × MIC of Compound (1a)): 32 µg/mL
- MIC, +Compound (1a) [½ × MIC] (S. aureus strain PK1; with ½ × MIC of Compound (1a)): 16 µg/mL
- MIC, antibiotic with 0.5 ug/mL (¼ MIC) of Compound (1a) (H. influenzae Q1; [5]): 0.25 µg/mL
- MIC, antibiotic alone (H. influenzae Q1; H. influenzae Q1): 1 µg/mL (≈ 1.34 µM)

SMILES: O=C(O)c1cn(C2CC2)c2cc(N3CCNCC3)c(F)cc2c1=O [Ciprofloxacin, ciprofloxacin]
- decrease of MIC by subinhibitory concentrations of Compound (1b) (S. pneumoniae 1629; S. pneumoniae): no effect
- MIC, antibiotic with 0.06 ug/mL (¼ MIC) of Compound (1b) (S. pneumoniae 1629; [1]): 0.5 µg/mL
- fold decrease MIC, antibiotic with 0.06 ug/mL (¼ MIC) of Compound (1b) (S. pneumoniae 1629; [1]): [0] fold
- MIC, antibiotic with […] (½ MIC) of Compound (1b) (S. pneumoniae 1629; [6]): 0.5 µg/mL
- fold decrease MIC, antibiotic with […] (½ MIC) of Compound (1b) (S. pneumoniae 1629; [6]): [0] fold
- MIC, antibiotic alone (S. pneumoniae 1629; S. pneumoniae 1629): 0.5 µg/mL (≈ 1.51 µM)
- MIC (S. pneumoniae 1629; [2]): 0.5 µg/mL (≈ 1.51 µM)
- MIC, antibiotic with 0.5 ug/mL (¼ MIC) of Compound (1a) (S. aureus WCUH29; [7]): 0.25 µg/mL
- fold decrease MIC, antibiotic with 0.5 ug/mL (¼ MIC) of Compound (1a) (S. aureus WCUH29; [7]): [0] fold
- MIC, antibiotic with 1 ug/mL (½ MIC) of Compound (1a) (S. aureus WCUH29; [3]): 0.25 µg/mL
- fold decrease MIC, antibiotic with 1 ug/mL (½ MIC) of Compound (1a) (S. aureus WCUH29; [3]): [0] fold
- MIC, antibiotic alone (S. aureus WCUH29; S. aureus WCUH29): 0.25 µg/mL (≈ 0.754 µM)
- decrease of MIC by subinhibitory concentrations of Compound (1a) (S. aureus WCUH29): no effect
- MIC (S. aureus WCUH29): 0.25 µg/mL (≈ 0.754 µM)
- MIC, antibiotic with 0.5 ug/mL (¼ MIC) of Compound (1a) (H. influenzae Q1; [5]): 0.008 µg/mL
- fold decrease MIC, antibiotic with 0.5 ug/mL (¼ MIC) of Compound (1a) (H. influenzae Q1; [5]): [0] fold
- MIC, antibiotic with 1 ug/mL (½ MIC) of Compound (1a) (H. influenzae Q1; [8]): 0.008 µg/mL
- fold decrease MIC, antibiotic with 1 ug/mL (½ MIC) of Compound (1a) (H. influenzae Q1; [8]): [0] fold
- MIC, antibiotic alone (H. influenzae Q1; H. influenzae Q1): 0.008 µg/mL (≈ 0.0241 µM)
- decrease of MIC by subinhibitory concentrations of Compound (1a) (H. influenzae Q1; H. influenzae, text summary of Example 7): no effect

SMILES: O=CN(O)C[C@@H](CC1CCCC1)C(=O)NNc1nc(N2CCOCC2)cc(C(F)(F)F)n1 [Compound (1b), N-hydroxy-N-((2R)-2-(cyclopentylmethyl)-3-{N′-[4-(morpholin-4-yl)-6-(trifluoromethyl)-pyrimidin-2-yl]-hydrazino}-3-oxopropyl)-formamide]
- decrease of MIC by subinhibitory concentrations of azithromycin (S. pneumoniae 1629; S. pneumoniae): 4-16 fold
- decrease of MIC by subinhibitory concentrations of erythromycin (S. pneumoniae 1629; S. pneumoniae): 8-32 fold
- effect of subinhibitory concentrations of ciprofloxacin on antibacterial potency (S. pneumoniae 1629; S. pneumoniae): no effect
- effect of subinhibitory concentrations of mupirocin on antibacterial potency (S. pneumoniae 1629; S. pneumoniae): no effect
- Compound (1b) fold decrease MIC (S. pneumoniae 1629; S. pneumoniae 1629, +Azithromycin 0.008 μg/ml {¼ × MIC}): [4] fold
- Compound (1b) fold decrease MIC (S. pneumoniae 1629; S. pneumoniae 1629, +Azithromycin […] {½ × MIC}): [16] fold
- Compound (1b) fold decrease MIC (S. pneumoniae 1629; S. pneumoniae 1629, +Ciprofloxacin 0.25 μg/ml {½ × MIC}): [0] fold
- Compound (1b) fold decrease MIC (S. pneumoniae 1629; S. pneumoniae 1629, +Ciprofloxacin […] {¼ × MIC}): [0] fold
- Compound (1b) fold decrease MIC (S. pneumoniae 1629; S. pneumoniae 1629, +Erythromycin 0.008 μg/ml {¼ × MIC}): [8] fold
- Compound (1b) fold decrease MIC (S. pneumoniae 1629; S. pneumoniae 1629, +Erythromycin […] {½ × MIC}): [32] fold
- Compound (1b) fold decrease MIC (S. pneumoniae 1629; S. pneumoniae 1629, +Mupirocin 0.25 μg/ml {½ × MIC}): [0] fold
- Compound (1b) fold decrease MIC (S. pneumoniae 1629; S. pneumoniae 1629, +Mupirocin […] {¼ × MIC}): [0] fold
- MIC (S. pneumoniae 1629; +Azithromycin 0.008 μg/ml {¼ × MIC}, read-out: Compound (1b) MIC): 0.06 µg/mL (≈ 0.13 µM)
- MIC (S. pneumoniae 1629; +Azithromycin […] {½ × MIC}, read-out: Compound (1b) MIC): 0.016 µg/mL (≈ 0.0347 µM)
- MIC (S. pneumoniae 1629; +Ciprofloxacin 0.25 μg/ml {½ × MIC}, read-out: Compound (1b) MIC): 0.25 µg/mL (≈ 0.543 µM)
- MIC (S. pneumoniae 1629; +Ciprofloxacin […] {¼ × MIC}, read-out: Compound (1b) MIC): 0.25 µg/mL (≈ 0.543 µM)
- MIC (S. pneumoniae 1629; +Erythromycin 0.008 μg/ml {¼ × MIC}, read-out: Compound (1b) MIC): 0.03 µg/mL (≈ 0.0652 µM)
- MIC (S. pneumoniae 1629; +Erythromycin […] {½ × MIC}, read-out: Compound (1b) MIC): 0.008 µg/mL (≈ 0.0174 µM)
- MIC (S. pneumoniae 1629; +Mupirocin 0.25 μg/ml {½ × MIC}, read-out: Compound (1b) MIC): 0.25 µg/mL (≈ 0.543 µM)
- MIC (S. pneumoniae 1629; +Mupirocin […] {¼ × MIC}, read-out: Compound (1b) MIC): 0.25 µg/mL (≈ 0.543 µM)
- MIC (S. pneumoniae 1629; [2]): 0.25 µg/mL (≈ 0.543 µM)
